# Data taken from patent US20250129069A1, “TRIAZOLO WRN INHIBITORS” (Nimbus Wadjet, Inc., priority 2023, published 2025).
# Key:
# [1] = target: human Werner helicase (WRN, amino acids 517-1235 with L1074F point mutation) (Homo sapiens (Human), UniProt Q14191, L1074F); assay: WRN (BV08) ADP-Glo assay; type: biochemical; details: human WRN (aa 517-1235, L1074F), read-out: ADP-Glo_hWRN_IC50
# How it was run: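 ADP-Glo luminescence read after 60 min, 25 °C reaction of 0.15 nM WRN (517-1235, L1074F, Sf9-expressed, tag removed) with 0.1 nM DNA duplex and 5 μM ATP, following 15 min compound preincubation; 20 mM Bicine pH 7.5, 1% DMSO. IC50 from 3- or 4-parameter fit of % inhibition.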
# [2] = system: p21 induction in HCT 116 cells; assay: p21 induction in cells (In-Cell Western, p21/GAPDH ratio); type: cell-based; details: Homo sapiens, 24 h compound incubation, read-out: p21_EC50
# How it was run: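 EC50 values come from nonlinear fits of percent activation, defined by the 800/700 nm p21-to-GAPDH ratio scaled between DMSO (low) and internal WRN inhibitor (high) controls. In-Cell Western read after 24 h compound exposure of HCT 116 cells at 37° C. Duplicate 11-point series, 2-fold steps, usually starting at 10 μM.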
# human Werner helicase (WRN, amino acids 517-1235 with L1074F point mutation), sequence (Q14191 other isoform, or with tags, fused parts or gaps L1074F (already in the parent)): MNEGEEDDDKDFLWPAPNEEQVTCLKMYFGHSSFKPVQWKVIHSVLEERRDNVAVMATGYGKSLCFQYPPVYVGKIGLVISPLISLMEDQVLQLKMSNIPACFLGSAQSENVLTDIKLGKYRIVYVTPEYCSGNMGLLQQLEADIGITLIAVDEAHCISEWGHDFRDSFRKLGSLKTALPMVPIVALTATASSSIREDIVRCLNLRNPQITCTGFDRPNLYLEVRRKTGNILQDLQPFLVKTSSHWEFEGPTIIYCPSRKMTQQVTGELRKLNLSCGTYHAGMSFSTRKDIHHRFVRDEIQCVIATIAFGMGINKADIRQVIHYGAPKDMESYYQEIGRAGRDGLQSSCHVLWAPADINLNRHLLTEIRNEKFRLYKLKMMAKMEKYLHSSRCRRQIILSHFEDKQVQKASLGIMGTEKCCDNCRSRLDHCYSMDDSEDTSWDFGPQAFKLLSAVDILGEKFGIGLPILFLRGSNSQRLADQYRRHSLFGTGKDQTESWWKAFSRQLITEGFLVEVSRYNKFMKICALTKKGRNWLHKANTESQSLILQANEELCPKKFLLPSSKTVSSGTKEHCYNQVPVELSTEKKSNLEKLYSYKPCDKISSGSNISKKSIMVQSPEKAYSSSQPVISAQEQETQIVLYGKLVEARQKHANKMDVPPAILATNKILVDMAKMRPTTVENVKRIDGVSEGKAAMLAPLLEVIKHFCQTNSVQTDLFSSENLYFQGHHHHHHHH
IC50 [1] [nM],EC50 [2] [nM],Structure (SMILES)
≤ 5,≤ 500,"CCc1c(N2CCN(C(=O)c3ncnc(C)c3O)CC2)c(=O)c2nn(-c3ccccn3)nc2n1CC(=O)Nc1ccc(C(F)(F)F)cc1Cl [Compound I-127, N-[2-chloro-4-(trifluoromethyl)phenyl]-2-{5-ethyl-6-[4-(5-hydroxy-6-methylpyrimidine-4-carbonyl)piperazin-1-yl]-7-oxo-2-(pyridin-2-yl)-2H,4H,7H-[1,2,3]triazolo[4,5-b]pyridin-4-yl}acetamide]"
5 to 50,≤ 500,"CCc1c(N2CCN(C(=O)c3c(OC)ncc(C)c3O)CC2)c(=O)c2nn(-c3ccnc(OC)c3)nc2n1CC(=O)NC12CC(C(F)(F)F)(C1)C2 [Compound I-128, 2-{5-ethyl-6-[4-(4-hydroxy-2-methoxy-5-methylpyridine-3-carbonyl)piperazin-1-yl]-2-(2-methoxypyridin-4-yl)-7-oxo-2H,4H,7H-[1,2,3]triazolo[4,5-b]pyridin-4-yl}-N-[3-(trifluoromethyl)bicyclo[1.1.1]pentan-1-yl]acetamide]"
5 to 50,≤ 500,"CCc1c(N2CCN(C(=O)c3c(OC)ncc(C)c3O)CC2)c(=O)c2nn(-c3ccnc(OC)c3)nc2n1CC(=O)NC12CC(C3CC3)(C1)C2 [Compound I-129, N-{3-cyclopropylbicyclo[1.1.1]pentan-1-yl}-2-{5-ethyl-6-[4-(4-hydroxy-2-methoxy-5-methylpyridine-3-carbonyl)piperazin-1-yl]-2-(2-methoxypyridin-4-yl)-7-oxo-2H,4H,7H-[1,2,3]triazolo[4,5-b]pyridin-4-yl}acetamide]"
5 to 50,≤ 500,"CCc1c(N2CCN(C(=O)c3c(OC)ncc(C)c3O)CC2)c(=O)c2nn(-c3ccnc(C)c3)nc2n1CC(=O)NC12CC(C(C)C)(C1)C2 [Compound I-130, 2-{5-ethyl-6-[4-(4-hydroxy-2-methoxy-5-methylpyridine-3-carbonyl)piperazin-1-yl]-2-(2-methylpyridin-4-yl)-7-oxo-2H,4H,7H-[1,2,3]triazolo[4,5-b]pyridin-4-yl}-N-[3-(propan-2-yl)bicyclo[1.1.1]pentan-1-yl]acetamide]"
5 to 50,500 to 2000,"CCc1c(N2CCN(C(=O)c3c(OC)ncc(C)c3O)CC2)c(=O)c2nn(-c3ccnc(OC)c3)nc2n1CC(=O)NC12CC(CC(F)(F)F)(C1)C2 [Compound I-131, 2-{5-ethyl-6-[4-(4-hydroxy-2-methoxy-5-methylpyridine-3-carbonyl)piperazin-1-yl]-2-(2-methoxypyridin-4-yl)-7-oxo-2H,4H,7H-[1,2,3]triazolo[4,5-b]pyridin-4-yl}-N-[3-(2,2,2-trifluoroethyl)bicyclo[1.1.1]pentan-1-yl]acetamide]"
5 to 50,≤ 500,"CCc1c(N2CCN(C(=O)c3c(O)ccc4ncoc34)CC2)c(=O)c2nn(C3CC3)nc2n1CC(=O)Nc1ccc(C(F)(F)F)cc1Cl [Compound I-133, N-[2-chloro-4-(trifluoromethyl)phenyl]-2-{2-cyclopropyl-5-ethyl-6-[4-(6-hydroxy-1,3-benzoxazole-7-carbonyl)piperazin-1-yl]-7-oxo-2H,4H,7H-[1,2,3]triazolo[4,5-b]pyridin-4-yl}acetamide]"
5 to 50,500 to 2000,"CCc1c(N2CCN(C(=O)c3ncnc(C)c3O)CC2)c(=O)c2nn(-c3ccncc3)nc2n1CC(=O)NC12CC(C(C)C)(C1)C2 [Compound I-134, 2-{5-ethyl-6-[4-(5-hydroxy-6-methylpyrimidine-4-carbonyl)piperazin-1-yl]-7-oxo-2-(pyridin-4-yl)-2H,4H,7H-[1,2,3]triazolo[4,5-b]pyridin-4-yl}-N-[3-(propan-2-yl)bicyclo[1.1.1]pentan-1-yl]acetamide]"
5 to 50,≤ 500,"CCc1c(N2CCN(C(=O)c3ncnc(C)c3O)CC2)c(=O)c2nn(-c3ccnc(OC)c3)nc2n1CC(=O)NC12CC(C3CC3)(C1)C2 [Compound I-135, N-{3-cyclopropylbicyclo[1.1.1]pentan-1-yl}-2-{5-ethyl-6-[4-(5-hydroxy-6-methylpyrimidine-4-carbonyl)piperazin-1-yl]-2-(2-methoxypyridin-4-yl)-7-ox0-2H,4H,7H-[1,2,3]triazolo[4,5-b]pyridin-4-yl}acetamide]"
5 to 50,2000 to 5000,"CCc1c(N2CCN(C(=O)c3c(O)cccc3OC(F)(F)F)CC2)c(=O)c2nn(-c3ccnc(OC)c3)nc2n1CC(=O)NC12CC(C3CC3)(C1)C2 [Compound I-136, N-{3-cyclopropylbicyclo[1.1.1]pentan-1-yl}-2-(5-ethyl-6-{4-[2-hydroxy-6-(trifluoromethoxy)benzoyl]piperazin-1-yl}-2-(2-methoxypyridin-4-yl)-7-oxo-2H,4H,7H-[1,2,3]triazolo[4,5-b]pyridin-4-yl)acetamide]"
≤ 5,≤ 500,"CCc1c(N2CCN(C(=O)c3c(O)ccc4ncoc34)[C@H]3CC[C@@H]32)c(=O)c2nn(-c3ccnc(OC)c3)nc2n1CC(=O)NC12CC(C(C)C)(C1)C2 [Compound I-137, 2-{5-ethyl-6-[(1S,6S)-5-(6-hydroxy-1,3-benzoxazole-7-carbonyl)-2,5-diazabicyclo[4.2.0]octan-2-yl]-2-(2-methoxypyridin-4-yl)-7-oxo-2H,4H,7H-[1,2,3]triazolo[4,5-b]pyridin-4-yl}-N-[3-(propan-2-yl)bicyclo[1.1.1]pentan-1-yl]acetamide]"
5 to 50,500 to 2000,"CCc1c(N2CCN(C(=O)c3ncnc(C)c3O)CC2)c(=O)c2nn(-c3ccncc3)nc2n1CC(=O)NC12CC(CC)(C1)C2 [Compound I-138, 2-{5-ethyl-6-[4-(5-hydroxy-6-methylpyrimidine-4-carbonyl)piperazin-1-yl]-7-oxo-2-(pyridin-4-yl)-2H,4H,7H-[1,2,3]triazolo[4,5-b]pyridin-4-yl}-N-{3-ethylbicyclo[1.1.1]pentan-1-yl}acetamide]"
≤ 5,≤ 500,"CCc1c(N2CCN(C(=O)c3c(O)ccc4ncoc34)CC2)c(=O)c2nn(C(C)C)nc2n1CC(=O)Nc1ccc(C(F)(F)F)cc1Cl [Compound I-139, N-[2-chloro-4-(trifluoromethyl)phenyl]-2-{5-ethyl-6-[4-(6-hydroxy-1,3-benzoxazole-7-carbonyl)piperazin-1-yl]-7-oxo-2-(propan-2-yl)-2H,4H,7H-[1,2,3]triazolo[4,5-b]pyridin-4-yl}acetamide]"
5 to 50,≤ 500,"CCc1c(N2CCN(C(=O)c3ncnc(C)c3O)CC2)c(=O)c2nn(-c3ccnc(OC)c3)nc2n1CC(=O)NC12CC(C3CCC3)(C1)C2 [Compound I-140, N-{3-cyclobutylbicyclo[1.1.1]pentan-1-yl}-2-{5-ethyl-6-[4-(5-hydroxy-6-methylpyrimidine-4-carbonyl)piperazin-1-yl]-2-(2-methoxypyridin-4-yl)-7-oxo-2H,4H,7H-[1,2,3]triazolo[4,5-b]pyridin-4-yl}acetamide]"
5 to 50,500 to 2000,"CCc1c(N2CCN(C(=O)c3ncnc(C)c3O)CC2)c(=O)c2nn(-c3ccncc3)nc2n1CC(=O)NC12CC(C3CCC3)(C1)C2 [Compound I-141, N-{3-cyclobutylbicyclo[1.1.1]pentan-1-yl}-2-{5-ethyl-6-[4-(5-hydroxy-6-methylpyrimidine-4-carbonyl)piperazin-1-yl]-7-oxo-2-(pyridin-4-yl)-2H,4H,7H-[1,2,3]triazolo[4,5-b]pyridin-4-yl}acetamide]"
